Reference: patent US20230085307A1, “PYRIDAZINONE COMPOUND AND HERBICIDE” (NISSAN CHEMICAL CORPORATION, priority 2019, published 2023)

Columns and labels:
late watergrass = experiment: Test Example 1: herbicidal activity, application before weed generation under submerged conditions (Table 16, symbol A); format: in vivo, late watergrass (Echinochloa oryzicola)
Method in brief: (§1)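 Emulsion formulation, water-diluted to set dose, was put onto the flooded surface (4 cm depth, alluvial soil) the same day weeds were sown and 2.5-leaf rice transplanted. After 3 weeks at 25-30 °C under glass, each species was rated 0 (≤5% kill) to 5 (≥90% kill).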

Japanese bulrush = experiment: Test Example 1: herbicidal activity, application before weed generation under submerged conditions (Table 16, symbol B); format: in vivo, Japanese bulrush (Schoenoplectus juncoides)
Method in brief: as §1

oval-leafed pondweed = experiment: Test Example 1: herbicidal activity, application before weed generation under submerged conditions (Table 16, symbol C); format: in vivo, oval-leafed pondweed (Monochoria vaginalis)
Method in brief: as §1

barnyard grass [1] = experiment: Test Example 3: herbicidal effect by foliage application, Wagner pot (Table 18, symbol H); format: in vivo, barnyard grass (Echinochloa crus-galli)
Method in brief: (§2)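 Plants were sown in alluvial soil held under 0.1–0.5 cm standing water and grown 14 days in a greenhouse at 25–30 °C. An emulsifiable formulation, water-diluted to the set dose, was then sprayed onto the foliage, and effects were scored three weeks later using previously defined criteria.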

Chinese sprangletop = experiment: Test Example 3: herbicidal effect by foliage application, Wagner pot (Table 18, symbol D); format: in vivo, chinese sprangletop (Leptochloa chinensis)
Method in brief: as §2

rice flat sedge = experiment: Test Example 3: herbicidal effect by foliage application, Wagner pot (Table 18, symbol E); format: in vivo, rice flat sedge (Cyperus iria)
Method in brief: as §2

southern crabgrass [2] = experiment: Test Example 4: herbicidal effect by soil treatment (Table 19, symbol F); format: in vivo, southern crabgrass (Digitaria ciliaris)
Method in brief: (§3)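 Applied as a water-diluted emulsion, the compound was sprayed onto soil covering newly sown seeds. Evaluation came three weeks after application, in a greenhouse held at 25° C. to 30° C.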

green foxtail [3] = experiment: Test Example 4: herbicidal effect by soil treatment (Table 19, symbol G); format: in vivo, green foxtail (Setaria viridis)
Method in brief: as §3

barnyard grass [4] = experiment: Test Example 4: herbicidal effect by soil treatment (Table 19, symbol H); format: in vivo, barnyard grass (Echinochloa crus-galli)
Method in brief: as §3

wild oat [5] = experiment: Test Example 4: herbicidal effect by soil treatment (Table 19, symbol I); format: in vivo, wild oat (Avena fatua)
Method in brief: as §3

blackgrass [6] = experiment: Test Example 4: herbicidal effect by soil treatment (Table 19, symbol J); format: in vivo, blackgrass (Alopecurus myosuroides)
Method in brief: as §3

Italian ryegrass [7] = experiment: Test Example 4: herbicidal effect by soil treatment (Table 19, symbol K); format: in vivo, Italian ryegrass (Lolium multiflorum)
Method in brief: as §3

windgrass [8] = experiment: Test Example 4: herbicidal effect by soil treatment (Table 19, symbol L); format: in vivo, windgrass (Apera spica-venti)
Method in brief: as §3

velvetleaf [9] = experiment: Test Example 4: herbicidal effect by soil treatment (Table 19, symbol M); format: in vivo, velvetleaf (Abutilon theophrasti)
Method in brief: as §3

redroot pigweed [10] = experiment: Test Example 4: herbicidal effect by soil treatment (Table 19, symbol N); format: in vivo, redroot pigweed (Amaranthus retroflexus)
Method in brief: as §3

lambsquarters [11] = experiment: Test Example 4: herbicidal effect by soil treatment (Table 19, symbol O); format: in vivo, lambsquarters (Chenopodium album)
Method in brief: as §3

chickweed [12] = experiment: Test Example 4: herbicidal effect by soil treatment (Table 19, symbol P); format: in vivo, common chickweed (Stellaria media)
Method in brief: as §3

persian speedwell [13] = experiment: Test Example 4: herbicidal effect by soil treatment (Table 19, symbol R); format: in vivo, Persian speedwell (Veronica persica)
Method in brief: as §3

southern crabgrass [14] = experiment: Test Example 5: herbicidal effect by foliage application, plastic box (Table 20, symbol F); format: in vivo, southern crabgrass (Digitaria ciliaris); details: foliage application
Method in brief: (§4)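 Sow seeds spot-wise in sterilized diluvial soil; cover with ~1.5 cm soil. Grow 14 days in greenhouse, 25° C. to 30° C. Spray foliage with emulsion diluted to predetermined amount. Rate effect after 3 weeks.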

green foxtail [15] = experiment: Test Example 5: herbicidal effect by foliage application, plastic box (Table 20, symbol G); format: in vivo, green foxtail (Setaria viridis); details: foliage application
Method in brief: as §4

barnyard grass [16] = experiment: Test Example 5: herbicidal effect by foliage application, plastic box (Table 20, symbol H); format: in vivo, barnyard grass (Echinochloa crus-galli); details: foliage application
Method in brief: as §4

wild oat [17] = experiment: Test Example 5: herbicidal effect by foliage application, plastic box (Table 20, symbol I); format: in vivo, wild oat (Avena fatua); details: foliage application
Method in brief: as §4

blackgrass [18] = experiment: Test Example 5: herbicidal effect by foliage application, plastic box (Table 20, symbol J); format: in vivo, blackgrass (Alopecurus myosuroides); details: foliage application
Method in brief: as §4

Italian ryegrass [19] = experiment: Test Example 5: herbicidal effect by foliage application, plastic box (Table 20, symbol K); format: in vivo, Italian ryegrass (Lolium multiflorum); details: foliage application
Method in brief: as §4

windgrass [20] = experiment: Test Example 5: herbicidal effect by foliage application, plastic box (Table 20, symbol L); format: in vivo, windgrass (Apera spica-venti); details: foliage application
Method in brief: as §4

velvetleaf [21] = experiment: Test Example 5: herbicidal effect by foliage application, plastic box (Table 20, symbol M); format: in vivo, velvetleaf (Abutilon theophrasti); details: foliage application
Method in brief: as §4

redroot pigweed [22] = experiment: Test Example 5: herbicidal effect by foliage application, plastic box (Table 20, symbol N); format: in vivo, redroot pigweed (Amaranthus retroflexus); details: foliage application
Method in brief: as §4

lambsquarters [23] = experiment: Test Example 5: herbicidal effect by foliage application, plastic box (Table 20, symbol O); format: in vivo, lambsquarters (Chenopodium album); details: foliage application
Method in brief: as §4

chickweed [24] = experiment: Test Example 5: herbicidal effect by foliage application, plastic box (Table 20, symbol P); format: in vivo, common chickweed (Stellaria media); details: foliage application
Method in brief: as §4

persian speedwell [25] = experiment: Test Example 5: herbicidal effect by foliage application, plastic box (Table 20, symbol R); format: in vivo, Persian speedwell (Veronica persica); details: foliage application
Method in brief: as §4

[26] = AAH 246 g/ha, three weeks after application
[27] = 269 g/ha, evaluated three weeks after application

## C=Cc1ccc(-c2sc3ccccc3c2-c2c(OC(=O)CCC)c(C)nn(C)c2=O)cc1 [1-128]
Late watergrass; 246 g/ha applied herbicide
  Herbicidal effect on A: late watergrass (grade 0-5): 0 (Herbicidal rate of 5% or less (almost no effect))
Japanese bulrush; 246 g/ha applied herbicide
  Herbicidal effect on B: Japanese bulrush (grade 0-5): 5 (Herbicidal rate of 90% or more (almost completely withered))
oval-leafed pondweed; 246 g/ha applied herbicide
  Herbicidal effect on C: oval-leafed pondweed (grade 0-5): 5 (Herbicidal rate of 90% or more (almost completely withered))
Barnyard grass [1]; 246 g/ha
  herbicidal effect on H (barnyard grass), rating 0-5: 4 (Herbicidal rate of 70% or more and less than 90%)
Chinese sprangletop; 246 g/ha
  herbicidal effect on D (Chinese sprangletop), rating 0-5: 5 (Herbicidal rate of 90% or more (almost completely withered))
Rice flat sedge; 246 g/ha
  herbicidal effect on E (rice flat sedge), rating 0-5: 3 (Herbicidal rate of 40% or more and less than 70%)
Southern crabgrass [2]; AAH 246 g/ha
  F: southern crabgrass, herbicidal effect rating: 0 (Herbicidal rate of 5% or less (almost no effect))
Green foxtail [3]; AAH 246 g/ha
  G: green foxtail, herbicidal effect rating: 0 (Herbicidal rate of 5% or less (almost no effect))
Barnyard grass [4]; AAH 246 g/ha
  H: barnyard grass, herbicidal effect rating: 0 (Herbicidal rate of 5% or less (almost no effect))
Wild oat [5]; AAH 246 g/ha
  I: wild oat, herbicidal effect rating: 0 (Herbicidal rate of 5% or less (almost no effect))
Blackgrass [6]; AAH 246 g/ha
  J: blackgrass, herbicidal effect rating: 0 (Herbicidal rate of 5% or less (almost no effect))
Italian ryegrass [7]; AAH 246 g/ha
  K: Italian ryegrass, herbicidal effect rating: 2 (Herbicidal rate of 20% or more and less than 40%)
Windgrass [8]; AAH 246 g/ha
  L: windgrass, herbicidal effect rating: 0 (Herbicidal rate of 5% or less (almost no effect))
Velvetleaf [9]; AAH 246 g/ha
  M: velvetleaf, herbicidal effect rating: 0 (Herbicidal rate of 5% or less (almost no effect))
Redroot pigweed [10]; AAH 246 g/ha
  N: redroot pigweed, herbicidal effect rating: 4 (Herbicidal rate of 70% or more and less than 90%)
Lambsquarters [11]; AAH 246 g/ha
  O: lambsquarters, herbicidal effect rating: 0 (Herbicidal rate of 5% or less (almost no effect))
Chickweed [12]; AAH 246 g/ha
  P: chickweed, herbicidal effect rating: 3 (Herbicidal rate of 40% or more and less than 70%)
Persian speedwell [13]; AAH 246 g/ha
  R: persian speedwell, herbicidal effect rating: 3 (Herbicidal rate of 40% or more and less than 70%)
Southern crabgrass [14]; [26]
  F: southern crabgrass, herbicidal effect: 0 (Herbicidal rate of 5% or less (almost no effect))
Green foxtail [15]; [26]
  G: green foxtail, herbicidal effect: 0 (Herbicidal rate of 5% or less (almost no effect))
Barnyard grass [16]; [26]
  H: barnyard grass, herbicidal effect: 1 (Herbicidal rate of 5% or more and less than 20%)
Wild oat [17]; [26]
  I: wild oat, herbicidal effect: 1 (Herbicidal rate of 5% or more and less than 20%)
Blackgrass [18]; [26]
  J: blackgrass, herbicidal effect: 3 (Herbicidal rate of 40% or more and less than 70%)
Italian ryegrass [19]; [26]
  K: Italian ryegrass, herbicidal effect: 4 (Herbicidal rate of 70% or more and less than 90%)
Windgrass [20]; [26]
  L: windgrass, herbicidal effect: 4 (Herbicidal rate of 70% or more and less than 90%)
Velvetleaf [21]; [26]
  M: velvetleaf, herbicidal effect: 4 (Herbicidal rate of 70% or more and less than 90%)
Redroot pigweed [22]; [26]
  N: redroot pigweed, herbicidal effect: 5 (Herbicidal rate of 90% or more (almost completely withered))
Lambsquarters [23]; [26]
  O: lambsquarters, herbicidal effect: 4 (Herbicidal rate of 70% or more and less than 90%)
Chickweed [24]; [26]
  P: chickweed, herbicidal effect: 5 (Herbicidal rate of 90% or more (almost completely withered))
Persian speedwell [25]; [26]
  R: persian speedwell, herbicidal effect: 5 (Herbicidal rate of 90% or more (almost completely withered))

## COCCOCOc1c(C)nn(C)c(=O)c1-c1c(-c2ccc(OCCSC)cc2)sc2ccc(F)cc12 [2-059]
Late watergrass; 269 g/ha applied herbicide
  Herbicidal effect on A: late watergrass (grade 0-5): 3 (Herbicidal rate of 40% or more and less than 70%)
Japanese bulrush; 269 g/ha applied herbicide
  Herbicidal effect on B: Japanese bulrush (grade 0-5): 3 (Herbicidal rate of 40% or more and less than 70%)
oval-leafed pondweed; 269 g/ha applied herbicide
  Herbicidal effect on C: oval-leafed pondweed (grade 0-5): 4 (Herbicidal rate of 70% or more and less than 90%)
Barnyard grass [1]; 269 g/ha
  herbicidal effect on H (barnyard grass), rating 0-5: 5 (Herbicidal rate of 90% or more (almost completely withered))
Chinese sprangletop; 269 g/ha
  herbicidal effect on D (Chinese sprangletop), rating 0-5: 5 (Herbicidal rate of 90% or more (almost completely withered))
Rice flat sedge; 269 g/ha
  herbicidal effect on E (rice flat sedge), rating 0-5: 5 (Herbicidal rate of 90% or more (almost completely withered))
Southern crabgrass [2]; 269 g/ha
  herbicidal effect rating, F: southern crabgrass: 4 (Herbicidal rate of 70% or more and less than 90%)
Green foxtail [3]; 269 g/ha
  herbicidal effect rating, G: green foxtail: 5 (Herbicidal rate of 90% or more (almost completely withered))
Barnyard grass [4]; 269 g/ha
  herbicidal effect rating, H: barnyard grass: 1 (Herbicidal rate of 5% or more and less than 20%)
Wild oat [5]; 269 g/ha
  herbicidal effect rating, I: wild oat: 0 (Herbicidal rate of 5% or less (almost no effect))
Blackgrass [6]; 269 g/ha
  herbicidal effect rating, J: blackgrass: 0 (Herbicidal rate of 5% or less (almost no effect))
Italian ryegrass [7]; 269 g/ha
  herbicidal effect rating, K: Italian ryegrass: 4 (Herbicidal rate of 70% or more and less than 90%)
Windgrass [8]; 269 g/ha
  herbicidal effect rating, L: windgrass: 4 (Herbicidal rate of 70% or more and less than 90%)
Velvetleaf [9]; 269 g/ha
  herbicidal effect rating, M: velvetleaf: 1 (Herbicidal rate of 5% or more and less than 20%)
Redroot pigweed [10]; 269 g/ha
  herbicidal effect rating, N: redroot pigweed: 5 (Herbicidal rate of 90% or more (almost completely withered))
Lambsquarters [11]; 269 g/ha
  herbicidal effect rating, O: lambsquarters: 5 (Herbicidal rate of 90% or more (almost completely withered))
Chickweed [12]; 269 g/ha
  herbicidal effect rating, P: chickweed: 4 (Herbicidal rate of 70% or more and less than 90%)
Persian speedwell [13]; 269 g/ha
  herbicidal effect rating, R: persian speedwell: 5 (Herbicidal rate of 90% or more (almost completely withered))
Southern crabgrass [14]; [27]
  herbicidal effect on F: southern crabgrass: 5 (Herbicidal rate of 90% or more (almost completely withered))
Green foxtail [15]; [27]
  herbicidal effect on G: green foxtail: 5 (Herbicidal rate of 90% or more (almost completely withered))
Barnyard grass [16]; [27]
  herbicidal effect on H: barnyard grass: 5 (Herbicidal rate of 90% or more (almost completely withered))
Wild oat [17]; [27]
  herbicidal effect on I: wild oat: 4 (Herbicidal rate of 70% or more and less than 90%)
Blackgrass [18]; [27]
  herbicidal effect on J: blackgrass: 5 (Herbicidal rate of 90% or more (almost completely withered))
Italian ryegrass [19]; [27]
  herbicidal effect on K: Italian ryegrass: 5 (Herbicidal rate of 90% or more (almost completely withered))
Windgrass [20]; [27]
  herbicidal effect on L: windgrass: 5 (Herbicidal rate of 90% or more (almost completely withered))
Velvetleaf [21]; [27]
  herbicidal effect on M: velvetleaf: 5 (Herbicidal rate of 90% or more (almost completely withered))
Redroot pigweed [22]; [27]
  herbicidal effect on N: redroot pigweed: 5 (Herbicidal rate of 90% or more (almost completely withered))
Lambsquarters [23]; [27]
  herbicidal effect on O: lambsquarters: 5 (Herbicidal rate of 90% or more (almost completely withered))
Chickweed [24]; [27]
  herbicidal effect on P: chickweed: 5 (Herbicidal rate of 90% or more (almost completely withered))
Persian speedwell [25]; [27]
  herbicidal effect on R: persian speedwell: 5 (Herbicidal rate of 90% or more (almost completely withered))
